# Assay results as given in patent US8119589B2, “Modulation of CD4+ T cell responses by a tick saliva protein, Salp15 and polypeptides derived therefrom” (University of North Carolina at Charlotte, priority 2004, dated 2012).
# Legend:
# CD8+ T cells = assay: Lipid raft reorganization (CTB594 staining) in anti-CD3/CD28 activated CD8+ T cells; assay type: cell-based, mouse; settings: Salp15 pretreatment
# Protocol: For the visualization of lipid rafts, phospho-tyrosine, and cytoskeleton reorganization, CD4^+, CD8^+ or Jurkat cells were cytospun for 10 minutes at 1000 RPM onto positively charged microslides (Fisher Scientific, Hampton, N.H., U.S.A.). The cells were fixed with 3.7% paraformaldehyde (Sigma Chemical Co.) for 15 minutes and stained with CTB594 (Molecular Probes, Eugene, Oreg., U.S.A.), AlexaFluor488 labeled phalloidin (Molecular Probes) or (1:50) biotin-conjugated anti-p-Tyr (PY99) followed by Streptavidin-AlexaFluor594 (1:100, Molecular Probes). For p-LAT and p-PLCγ1 staining, fixed cells were treated with PBS containing 0.1% Triton-X 100 and 100 mM glycine for 15 min at room temperature and stained using rabbit p-LAT (Tyr^191) or rabbit anti-p-PLCγ1 (Tyr^783) probed with anti-rabbit IgG488 (Molecular Probes).
# For receptor capping studies, mouse primary B and CD11^+ cells were purified by positive selection using biotin anti-mouse CD45R/B220 clone RA3-6B2 and biotin anti-mouse CD11b clone M1/70 (BD Biosciences Pharmingen) respectively, followed by incubation with magnetic microbeads. The cells were analyzed for receptor capping using 25 μg/mL anti-mouse IgM and 25 μg/mL anti-mouse CD16/CD32 respectively, cross-linked with 25 μg/mL of anti-rat IgG594 for 10 min in the presence or absence of 50 μg/mL of Salp15. […]
# [1] = tested on: fusion of HL2/3 cells expressing HIV envelope proteins with HeLa-CD4 cells; assay: gp120-CD4-mediated cell fusion by luciferase assay (HeLa-CD4 + HL2/3 cells); assay type: cell-based; settings: 10 and 50 ug/ml Salp15; 48 hours
# Protocol: 106 HeLa-CD4 cells, clone 1022 (NIH AIDS Research & Reference Reagent Program, Germantown, Md., U.S.A.) were plated in a 6-well plate and transfected with the plasmid Blue 3′ LTR-luciferase (NIH AIDS Research & Reference Reagent Program) using the lipofectamin method (Invitrogen).
# After 24 hours, the cells were trypsinized and mixed with HL2/3 cells that express HIV envelope proteins (NIH AIDS Research & Reference Reagent Program), encoding Gag, Nef, Rev, Tat and Env proteins from HIV (0.2×106 HeLa-CD4+0.2×106 HL2/3) in a 24-well plate at a final volume of 500 uL. The cells were incubated in the presence of 10 and 50 ug/ml of Salp15. The positive control was anti-CD4 Ab and the negative control was anti-CD3.
# The cells were harvested after 48 hours, washed with PBS and lysed with 100 uL of Passive Lysis buffer (Promega) per well, for 15 min at RT. The lysates were transferred to Eppendorf tubes, spun at 10,000×g and assessed for Luciferase activity and protein content by the Bradford assay (BioRad). Luciferase activity is an indicator of cell fusion mediated by the interaction of HIV envelope proteins on HL2/3 cells and CD4 on HeLa-CD4 cells.
# sCD4 D1-D4 = biological target: T1, sCD4 D1-D4 (Homo sapiens, UniProt P01730); assay: Analytical gel filtration and native gel electrophoresis of Salp15-sCD4; assay type: binding; settings: native PAGE and Western blot
# T1 construct: a sCD4 preparation that contains all four extracellular domains (D1-D4)
# Protocol: Purified sCD4 (D1-D4, 10 μg) and Salp15 (20 μg) were eluted through two SUPERDEX-200™ HR 10/30 gel filtration columns (Amersham Pharmacia Biotech, Piscataway, N.J., U.S.A.) connected in tandem using PBS as equilibration and elution buffer at a flow rate of 0.3 mL/min using an FPLC system (Amersham Pharmacia Biotech) equipped with a liquid chromatography controller LCC-501 Plus and regulated using FPLC director V1.10. To get the elution profile of the Salp15-CD4 complex, Salp15 was incubated with sCD4 before passing it through the gel filtration column. Blue dextran was used to estimate the void volume of the columns, while BSA, ovalbumin and lysozyme were used as molecular weight standards with elution volumes of 14.78 mL, 26.45 mL, 28.45 mL and 39.28 mL, respectively.
# Purified sCD4 (D1-D4, 10 μg), Salp15 (10 μg) and sCD4 (10 μg)+Salp15 (10 μg) were diluted into 50% glycerol, 40 mM HEPES (pH 6.5) and 50 mM imidazole (pH 6.5). The native gel [5% Acrylamide:Bis (29:1), 40 mM HEPES (pH 6.5), 50 mM imidazole (pH 6.5) and 10% glycerol] electrophoresis was performed using a 40 mM HEPES (pH 6.5) running buffer and 50 mM imidazole (pH 6.5) at 8 mAmps for 1.5 hours at 4° C. The gel was stained with coomassie blue or transferred to IMMOBILON P® (Millipore) blotting paper for immunoblotting with anti-Poly His-HRP and anti-CD4.
# CD4 co-receptor = biological target: T2, CD4 co-receptor (Homo sapiens, UniProt P01730); assay: Co-immunoprecipitation with His-tagged Salp15 from Jurkat cell lysate; assay type: binding; settings: anti-His
# T2 construct: 1-2×10^7 Jurkat, HeLa or HeLa-CD4 cells were lysed; endogenous in cells; host or cells: Jurkat
# Protocol: For coimmunoprecipitation, 1-2×10^7 Jurkat, HeLa or HeLa-CD4 cells were lysed in 20 mM HEPES pH 7.4 containing 150 mM NaCl, 1% Triton-X 100, 0.25% sodium deoxycholate, 25 mM NaF, 2 mM Na3VO4, 1 mM PMSF and protease inhibitors for 15 min on ice. One mg of protein equivalent of the cell lysate was mixed with 50 μg/mL of 6× histidine-tagged-Salp15 or 6×His-tagged Salp13 fused to thioredoxin (29 kD) as a control protein, (Anguita et al., 2002, Das et al., 2001) and immunoprecipitated using an anti-poly-histidine antibody conjugated to agarose, anti-CD4, anti-CD3, anti-CD28 or normal rabbit IgG overnight at 4° C. The immunoprecipitate was run on SDS-PAGE followed by immunoblotting with anti-poly His-HRP, anti-CD4, anti-CD3, anti-CD28 or anti-TCRβ.
substance,measurement,setting,value
"Salp15: secreted salivary protein from Ixodes scapularis, SEQ ID NO: 2; recombinant His-tagged, produced in Drosophila S2 cells",Lipid raft reorganization,CD8+ T cells,unaffected
same,Reduction in cell fusion (luciferase activity),[1],concentration dependent reduction
same,Migration with sCD4 (D1-D4) in native gel,sCD4 D1-D4,co-migrated
same,Co-immunoprecipitation of CD4,CD4 co-receptor,co-immunoprecipitated
